Test results as given in patent publication US20100120700A1, “METHODS AND COMPOSITIONS FOR TREATING CERVICAL CANCER” (priority 2000, published 2010).
Several values for one entry are separate records, joined by “and”; a condition that tells them apart may be missing. Identical values can stand only once.

Tests used:
Experiment in all cases: G assay PDZ-PL binding
[1] = molecular target: T1, ERBIN domain 1 (Homo sapiens, UniProt Q96RT1); details: peptide 10 uM, protein 5
T1 construct: made in house; host or cells: E. coli (DH5alpha, BL21 or JM109)
Method: (§1) (1) A PDZ-domain polypeptide is bound to a surface, e.g. a protein binding surface. In a preferred embodiment, a GST/PDZ fusion protein containing one or more PDZ domains is bound to a polystyrene 96-well plate. […] In one embodiment, the GST/PDZ fusion protein is bound via an anti-GST antibody that is coated onto the 96-well plate. Adequate binding to the plate can be achieved when: • a. 100 uL per well of 5 ug/mL goat anti-GST polyclonal antibody (Pierce) in PBS is added to a polystyrene 96-well plate (e.g., Num Polysorb) at 4° C. for 12 hours. • b. The plate is blocked by addition of 200 uL per well of PBS/BSA for 2 hours at 4° C. • c. The plate is washed 3 times with PBS. • d. 50 uL per well of 5 ug/mL GST/PDZ fusion protein) or, as a negative control, GST polypeptide alone (i.e. not a fusion protein) in PBS/BSA is added to the plate for 2 hours at 4° C. • e. The plate is again washed 3 times with PBS. […]
(§2) (3) The binding of the biotinylated peptide to the GST/PDZ fusion protein surface can be detected using a variety of methods and detectors known to one of skill in the art. In one embodiment, 100 uL per well of 0.5 ug/mL streptavidin-horse radish peroxidase (HRP) conjugate dissolved in BSA/PBS is added and allowed to react for 20 minutes at 4° C. The plate is then washed 5 times with 50 mM Tris pH 8.0 containing 0.2% Tween 20, and developed by addition of 100 uL per well of HRP-substrate solution (TMB, Dako) for 20 minutes at room temperature (RT). The reaction of the HRP and its substrate is terminated by addition of 100 uL per well of 1M sulfuric acid, and the absorbance of each well of the plate is read at 450 nm.
(§3) (4) Specific binding of a PL peptide and a PDZ domain polypeptide is determined by comparing the signal from the well(s) in which the PL peptide and PDZ domain polypeptide are combined, with the background signal(s). The background signal is the signal found in the negative control(s). Typically a specific or selective reaction will be at least twice background signal, more typically more than 5 times background, and most typically 10 or more times the background signal. In addition, a statistically significant reaction will involve multiple measurements of the reaction with the signal and the background differing by at least two standard errors, more typically four standard errors, and most typically six or more standard errors. Correspondingly, a statistical test (e.g. a T-test) comparing repeated measurements of the signal with-repeated measurements of the background will result in a p-value<0.05, more typically a p-value<0.01, and most typically a p-value<0.001 or less. As noted, in an embodiment of the “G” assay, the signal from binding of a given PL peptide to immobilized (surface bound) GST polypeptide alone is one suitable negative control (sometimes referred to as “B 1”). Because all measurement are done in multiples (i.e. at least duplicate) the arithmetic mean (or, equivalently, average.) of several measurements is used in determining the binding, and the standard error of the mean is used in determining the probable error in the measurement of the binding. The standard error of the mean of N measurements equals the square root of the following: the sum of the squares of the difference between each measurement and the mean, divided by the product of (N) and (N−1). Thus, in one embodiment, specific binding of the PDZ protein to the platebound peptide is determined by comparing the mean signal (“mean S”) and standard error of the signal (“SE”) for a particular PL-PDZ combination with the mean B1.
(§4) For convenience, the assay conditions described in this section are referred to as the “G’ assay” and the “G” assay,” with the specific conditions described in the preceding section on G assays being referred to as the “G° assay.” The “G′ assay” is identical to the “G° assay” except at step (2) the peptide concentration is 10 uM instead of 20 uM. […]

[2] = molecular target: T2, INADL domain 6 (Homo sapiens, UniProt Q8NI35, G1085V); details: peptide 10 uM, protein 5
T2 construct: made in house; host or cells: E. coli (DH5alpha, BL21 or JM109)
Method: as §1, §2, §3, §4

[3] = molecular target: T3, KIAA0147 domain 1 (Homo sapiens, UniProt Q14160); details: A450 nm, peptide 10 uM, protein 5
T3 construct: made in house; host or cells: E. coli (DH5alpha, BL21 or JM109)
Method: as §1, §2, §3, §4

[4] = molecular target: T4, KIAA0545 domain 1 (Homo sapiens, UniProt O60292); details: peptide 10 uM, protein 5
T4 construct: made in house; host or cells: E. coli (DH5alpha or BL-21)
Method: as §1, §2, §3, §4

[5] = molecular target: T5, KIAA0561 domain 1 (Homo sapiens, UniProt O60307); details: peptide 10 uM, protein 5
T5 construct: made in house; host or cells: E. coli (DH5alpha, BL21 or JM109)
Method: as §1, §2, §3, §4

[6] = molecular target: T6, KIAA0973 #148.5 domain 1 (Homo sapiens, UniProt Q9Y2H9); details: peptide 10 uM, protein 5
T6 construct: made in house; host or cells: E. coli (DH5alpha, BL21 or JM109)
Method: as §1, §2, §3, §4

[7] = molecular target: T7, KIAA1526 #119.1 domain 1 (Homo sapiens, UniProt Q9P202); details: peptide 10 uM, protein 5
T7 construct: made in house; host or cells: E. coli (DH5alpha or BL-21)
Method: as §1, §2, §3, §4

[8] = molecular target: T8, KIAA1526 #126.1 domain 2 (Homo sapiens, UniProt Q9P202, G331W); details: peptide 10 uM, protein 5
T8 construct: made in house; host or cells: E. coli (DH5alpha, BL21 or JM109)
Method: as §1, §2, §3, §4

[9] = molecular target: T9, LIM Mystique domain 1 (Homo sapiens, UniProt Q96JY6); details: peptide 10 uM, protein 5
T9 construct: made in house; host or cells: E. coli (DH5alpha, BL21 or JM109), vector pGEX-3X
Method: as §1, §2, §3, §4

[10] = molecular target: T10, MAGI 1 domain 6 (Homo sapiens, UniProt Q96QZ7); details: peptide 10 uM, protein 5
T10 construct: made in house; host or cells: E. coli (DH5alpha, BL21 or JM109), vector pGEX-3X
Method: as §1, §2, §3, §4

[11] = molecular target: T11, MINT1 domain 2 (Homo sapiens, UniProt Q02410); details: peptide 10 uM, protein 5
T11 construct: made in house; host or cells: E. coli (DH5alpha, BL21 or JM109), vector pGEX-3X
Method: as §1, §2, §3, §4

[12] = molecular target: T12, Shank 3 domain 1 (Homo sapiens, UniProt Q9BYB0); details: peptide 10 uM, protein 5
T12 construct: made in house; host or cells: E. coli (DH5alpha or BL-21)
Method: as §1, §2, §3, §4

[13] = molecular target: T13, TAX IP 2 domain 1 (Homo sapiens, UniProt O14908); details: peptide 10 uM, protein 5
T13 construct: made in house; host or cells: E. coli (DH5alpha, BL21 or JM109)
Method: as §1, §2, §3, §4

[14] = molecular target: T14, X-11 beta domain 2 (Homo sapiens, UniProt Q99767); details: peptide 10 uM, protein 5
T14 construct: made in house; host or cells: E. coli (DH5alpha or BL-21)
Method: as §1, §2, §3, §4

T14 sequence (Q99767 with tags, fused parts or gaps): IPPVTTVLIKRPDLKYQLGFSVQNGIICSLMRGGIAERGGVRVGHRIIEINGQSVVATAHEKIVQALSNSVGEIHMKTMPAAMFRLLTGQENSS
T6 sequence (Q9Y2H9 963-1055): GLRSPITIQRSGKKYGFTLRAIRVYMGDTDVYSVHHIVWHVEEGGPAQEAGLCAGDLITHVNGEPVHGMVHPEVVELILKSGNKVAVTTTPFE
T1 sequence (Q96RT1 1313-1412): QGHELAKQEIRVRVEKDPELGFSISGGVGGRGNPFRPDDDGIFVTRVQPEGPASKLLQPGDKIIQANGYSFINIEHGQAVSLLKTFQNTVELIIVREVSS
T11 sequence (Q02410 with tags, fused parts or gaps): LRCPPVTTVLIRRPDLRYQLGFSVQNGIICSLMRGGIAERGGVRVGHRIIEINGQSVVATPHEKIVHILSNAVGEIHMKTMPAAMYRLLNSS
T13 sequence (O14908 131-216): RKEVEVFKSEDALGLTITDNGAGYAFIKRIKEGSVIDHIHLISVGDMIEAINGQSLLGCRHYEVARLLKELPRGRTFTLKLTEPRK
T5 sequence (O60307 with tags, fused parts or gaps): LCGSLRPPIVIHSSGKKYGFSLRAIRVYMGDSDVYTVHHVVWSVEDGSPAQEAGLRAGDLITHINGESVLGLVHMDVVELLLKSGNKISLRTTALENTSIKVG
T3 sequence (Q14160 with tags, fused parts or gaps): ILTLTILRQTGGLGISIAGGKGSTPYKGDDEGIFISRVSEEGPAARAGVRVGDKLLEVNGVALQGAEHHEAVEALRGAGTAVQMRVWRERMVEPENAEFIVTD
T12 sequence (Q9BYB0 638-747): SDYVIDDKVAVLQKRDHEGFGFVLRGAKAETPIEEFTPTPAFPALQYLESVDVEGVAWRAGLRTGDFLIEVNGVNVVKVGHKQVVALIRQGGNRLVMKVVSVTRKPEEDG
T9 sequence (Q96JY6 1-91): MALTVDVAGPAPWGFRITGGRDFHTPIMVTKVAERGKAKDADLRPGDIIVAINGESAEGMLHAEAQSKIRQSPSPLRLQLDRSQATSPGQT
T7 sequence (Q9P202 130-232): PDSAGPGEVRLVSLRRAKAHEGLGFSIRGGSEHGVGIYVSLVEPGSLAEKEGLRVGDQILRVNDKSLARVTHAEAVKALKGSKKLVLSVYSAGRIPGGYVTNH
T2 sequence (Q8NI35 with tags, fused parts or gaps G1085V): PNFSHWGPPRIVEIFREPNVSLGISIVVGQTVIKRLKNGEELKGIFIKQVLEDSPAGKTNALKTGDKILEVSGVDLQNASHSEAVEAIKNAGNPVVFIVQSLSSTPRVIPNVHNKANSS
T8 sequence (Q9P202 272-371 G331W): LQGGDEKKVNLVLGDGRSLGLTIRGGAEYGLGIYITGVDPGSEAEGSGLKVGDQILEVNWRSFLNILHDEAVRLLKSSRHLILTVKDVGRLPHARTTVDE
T10 sequence (Q96QZ7 1143-1233): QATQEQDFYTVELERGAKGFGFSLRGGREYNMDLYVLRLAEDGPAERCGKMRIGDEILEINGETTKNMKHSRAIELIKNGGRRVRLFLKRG
T4 sequence (O60292 955-1050): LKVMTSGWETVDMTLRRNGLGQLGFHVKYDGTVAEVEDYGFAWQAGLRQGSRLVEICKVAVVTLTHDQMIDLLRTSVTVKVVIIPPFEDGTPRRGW

“20 mer peptide corresponding to the C-terminus of HPV16 E6 (PDZ ligand), biotinylated in binding assays; ends SSRTRRETQL (SEQ ID NO: 13) [HPV E6 #16]” was tested, and the “Ave OD” value ([1]; A450 nm) was 0.36 and 0.342, the “OD S/N” value ([1]; vs GST only well) was 1.82 and 1.30 and the “Ave OD” value ([2]; A450 nm) was 0.518. For the same substance, the “OD S/N” value ([2]; vs GST only well) was 3.07, the “Ave OD” value [3] was 2.1465 and 3.764 and the “Ave OD” value ([4]; A450 nm) was 0.4395. The “OD S/N” value ([4]; vs GST only well) was 3.96, the “Ave OD” value ([5]; A450 nm) was 0.3475 and the “OD S/N” value ([5]; vs GST only well) was 2.44. For the same substance, the “Ave OD” value ([6]; A450 nm) was 0.378 and 0.4985, the “OD S/N” value ([6]; vs GST only well) was 1.68 and 2.71 and the “Ave OD” value ([7]; A450 nm) was 0.425. For the same substance, the “OD S/N” value ([7]; vs GST only well) was 1.38, the “Ave OD” value ([8]; A450 nm) was 0.4625 and the “OD S/N” value ([8]; vs GST only well) was 1.87. For the same substance, the “Ave OD” value ([9]; A450 nm) was 0.5955, the “OD S/N” value ([9]; vs GST only well) was 2.84 and the “Ave OD” value ([10]; A450 nm) was 0.71. For the same substance, the “OD S/N” value ([10]; vs GST only well) was 2.47, the “Ave OD” value ([11]; A450 nm) was 0.5925 and the “OD S/N” value ([11]; vs GST only well) was 2.76 and 2.24. The “Ave OD” value ([12]; A450 nm) was 0.396, the “OD S/N” value ([12]; vs GST only well) was 2.61 and the “Ave OD” value ([13]; A450 nm) was 0.5085 and 0.478. For the same substance, the “OD S/N” value ([13]; vs GST only well) was 2.37 and 2.48, the “Ave OD” value ([14]; A450 nm) was 0.4315 and 0.4265 and the “OD S/N” value ([14]; vs GST only well) was 2.95 and 1.78.
